Among the data in PubChem BioAssay (NCI) are TGI and GI50 values, retold here.

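48-hour exposure; five concentrations; linearly interpolated endpoints. Abbreviation: GI50, concentration required for 50% inhibition of growth. The concentration for full growth arrest is given as TGI.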 Bounds are passed on as bounds.

What all share (assay): growth of human tumour cells (NCI), 48 h
The test system of test [1] is OVCAR-4 ovarian.
The test system of test [2] is CCRF-CEM leukemia.
In test [3] the test system is OVCAR-8 ovarian.
Test [4] relates to UACC-62 melanoma.
Test [5] relates to SK-MEL-2 melanoma.
Test [6] has as its system HCT-15 colon.
Test [7] concerns SNB-19 CNS.
The subject of test [8] is TK-10 renal.
The subject of test [9] is K-562 leukemia.
Test [10] deals with NCI-H226 lung.

Regarding `Cc1ccc(C(=O)NCCN(C)C)c2nc3ccccc3cc12`, the TGI was over 100 µM in test [1]; over 100 µM in test [2]; 7.99 µM in test [3]; over 100 µM in test [4]; over 100 µM in test [5]; 6.5 µM in test [6]. Further, the TGI in [7] is 13.6 µM; in [8], 12.2 µM; in test [9], over 100 µM; in test [10], 3.85 µM.
As to `CN(C)Cc1c(C(=O)NCCOc2ccc(C(=O)NO)cc2)oc2ccccc12`, the GI50 is 0.269 µM in test [1]; 135 nM in test [2]; 0.0807 µM in [3]; 0.151 µM in test [4]; 0.243 µM in test [5]; 1.9 µM in [6]. For the same compound, the GI50 is 0.453 µM in test [7], 0.185 µM in [8], 0.307 µM in test [9] and 0.626 µM in test [10]. Further, the TGI in test [1] is over 71.3 µM; in [2] it was 25.8 µM; in test [3] it was 3.99 µM; in [4], 0.63 µM; in [5], 1.54 µM; in test [6], over 35.9 µM. Further, the TGI is 13.9 µM in [7], 0.88 µM in test [8], over 100 µM in test [9] and 7.6 µM in test [10].
With `O=C(O)CN(c1ccc(F)cc1)S(=O)(=O)c1ccccc1`, the TGI in [1], in [2], in [3], in [4], in test [5] and in test [6] was over 100 µM in each case. The TGI in test [7], in test [8], in test [9] and in test [10] was over 100 µM in each case.
As for `O=[N+]([O-])c1ccc2c(c1)C(c1ccccc1Cl)=Nc1c(n[nH]c1-c1cccnc1)N2`, the GI50 in [1] is over 19.8 µM; in test [2], over 25000 nM; in test [3] it was over 25 µM; in test [4], over 25 µM; in [5] it was over 25 µM; in test [6] it was over 25 µM. The GI50 in test [7], in test [8], in test [9] and in test [10] was over 25 µM each time. The TGI in test [1], in test [2], in test [3], in [4], in test [5] and in test [6] was over 25 µM throughout. In addition, the TGI in test [7], in [8], in test [9] and in test [10] was over 25 µM each time.
Turning to `CN(C)CCOc1ccccc1NC1=C(Cl)C(=O)C(Nc2ccccc2OCCN(C)C)=C(Cl)C1=O`, the GI50 is 0.473 µM in [1]; 966 nM in [2]; 4.16 µM in test [3]; over 34.1 µM in test [4]; 19.2 µM in test [5]; 0.845 µM in test [6]. Also, the GI50 in test [7] is 24.9 µM; in test [8] it was 5.73 µM; in [9] it was 2.26 µM; in [10], 23.6 µM. In addition, the TGI in [1] was 0.896 µM; in test [3], 20.7 µM; in test [4], over 49.3 µM; in [5] it was over 57 µM; in test [6], 2.61 µM; in test [7] it was over 49.8 µM. Besides, the TGI is 12.4 µM in test [8], 5.41 µM in test [9] and over 57.9 µM in test [10].
In the case of `O=c1oc2ccc(Br)cc2c(=O)n1-c1ccc(Cl)cc1F`, the GI50 in [1] is 0.887 µM; in test [2], 2380 nM; in [3], 1.7 µM; in [4] it was 0.33 µM; in test [5], 0.69 µM; in [6] it was 1.7 µM. Further, the GI50 in [7] was 0.506 µM; in test [8] it was 4.19 µM; in test [9], 0.646 µM; in [10] it was 1.43 µM. For the same compound, the TGI in test [1] is 28.1 µM; in test [2], 11.7 µM; in test [3], over 26.2 µM; in test [4] it was 1.41 µM; in [5] it was 4.5 µM; in test [6] it was 9.52 µM. In addition, the TGI was over 100 µM in [7], 18.9 µM in test [8], over 100 µM in [9] and 5.11 µM in [10].
On to `Cc1ccccc1C(C(=O)NC1CCCCC1)N(C(=O)CNc1ccc(C#N)cc1)c1cccc(F)c1` (centres undefined), for which the GI50 in test [1] is 9.34 µM; in test [2], over 100000 nM; in test [3], 10.6 µM; in test [4] it was 18.7 µM; in test [5], 13.1 µM; in test [6], over 100 µM. Besides, the GI50 in [7] was 9.13 µM; in test [8] it was 24 µM; in test [9], over 95.7 µM; in [10], 14.1 µM. Further, the TGI in test [1] was over 71.6 µM; in [2], over 100 µM; in test [3], over 100 µM; in test [4], over 100 µM; in [5] it was 32.5 µM; in test [6], over 100 µM. Further, the TGI in [7] was 37.3 µM; in test [8], 71.7 µM; in [9], over 100 µM; in [10], over 94.5 µM.
Turning to `Cn1c(=O)c(Oc2ccc(F)cc2F)cc2cnc(NC3CCOCC3)nc21`, the GI50 in [1] was over 25 µM; in test [2] it was over 25000 nM; in test [3] it was over 25 µM; in test [4], over 25 µM; in [5], over 25 µM; in [6], over 25 µM. Further, the GI50 was over 25 µM in [7], 18.6 µM in [8], over 25 µM in [9] and over 25 µM in test [10]. Further, the TGI in test [1], in test [2], in [3], in test [4], in test [5] and in test [6] was over 25 µM in each case. In addition, the TGI in test [7], in test [8], in test [9] and in test [10] was over 25 µM in each case.
As for `CC(=O)N[C@@H](Cc1ccc(OP(=O)(O)O)cc1)C(=O)N[C@H]1CCC(=O)N2CCC[C@@H](C(=O)NCc3ccccc3)N2C1=O`, the GI50 in test [1] is over 25 µM; in [2] it was over 25000 nM; in [3] it was over 25 µM; in test [4] it was over 25 µM; in test [5], over 25 µM; in test [6], over 25 µM. Further, the GI50 in test [7], in test [8], in [9] and in test [10] was over 25 µM each time. Also, the TGI in test [1], in [2], in [3], in test [4], in test [5] and in test [6] was over 25 µM each time. Also, the TGI in [7], in [8], in [9] and in test [10] was over 25 µM each time.
Consider `COc1cc(C2CC(=O)Nc3c2c(C)nn3-c2nc3ccccc3[nH]2)cc(OC)c1O` (centres undefined), for which the GI50 in [1] was 2.43 µM; in [2], 1340 nM; in test [3], 3.4 µM; in test [4], 2.06 µM; in [5] it was 2.23 µM; in test [6], 3.69 µM. In addition, the GI50 was 3.5 µM in test [7], 2.84 µM in test [8], 4.67 µM in [9] and 2.46 µM in [10]. The TGI in [1] was 11.4 µM; in test [2] it was over 100 µM; in test [3], over 32.1 µM; in [4], 4.9 µM; in test [5] it was 4.52 µM; in [6], over 100 µM. Further, the TGI in [7] was over 100 µM; in [8] it was 7.67 µM; in test [9], over 100 µM; in [10], 7.16 µM.
For the compound `NC(N)=Nc1ccc(/C=C2\C=Cc3ccccc32)cc1`, the GI50 in [1] was 2.89 µM; in test [2], 2090 nM; in test [3], 2.22 µM; in test [4], 2.84 µM; in [5], 4.83 µM; in test [6], 2.13 µM. The GI50 in [7] is 6.32 µM; in test [8] it was 2.02 µM; in test [9], 2.66 µM; in test [10], 5.73 µM. Further, the TGI in test [1] was found to be 15.1 µM; in [2], 4.9 µM; in test [3] it was 5.67 µM; in test [4] it was 9.94 µM; in [5], 11.6 µM; in test [6] it was 4.55 µM. Also, the TGI is 32.5 µM in test [7], 4.04 µM in [8], over 22 µM in test [9] and 31.1 µM in test [10].
As to `COc1ccc(Cn2cc3c(c2-c2cc(OC)c(OC)c(OC)c2)CCc2c(CO)noc2-3)cc1`, the GI50 in [1] was 4.2 µM; in test [2], 347 nM; in test [3], 0.417 µM; in test [4], 0.354 µM; in test [5], 0.455 µM; in test [6], 0.315 µM. The GI50 in test [7] is 0.43 µM; in test [8] it was 17.7 µM; in [9] it was 0.313 µM; in test [10] it was 2.94 µM. For the same compound, the TGI was determined as 51.6 µM in test [1]; 23.7 µM in test [2]; 19.6 µM in [3]; 20.7 µM in test [4]; 19.5 µM in [5]; 27.1 µM in [6]. Also, the TGI is 21.4 µM in [7], 55.2 µM in test [8], over 100 µM in test [9] and 38.2 µM in test [10].
As to `C=CCOC(=O)Nc1cccn([C@H](CC(C)C)C(=O)NCCC(C)C)c1=O`, the GI50 in test [1] is 28.1 µM; in [2], 26800 nM; in [3], over 100 µM; in test [4], over 100 µM; in test [5], over 100 µM; in [6], 84.5 µM. The GI50 was over 100 µM in [7], over 100 µM in test [8], 96 µM in test [9] and over 100 µM in [10]. The TGI is over 100 µM in test [1]; 90.3 µM in test [2]; over 100 µM in test [3]; over 100 µM in test [4]; over 100 µM in [5]; over 100 µM in [6]. Besides, the TGI in [7], in [8], in test [9] and in test [10] was over 100 µM each time.
As to `Cc1c2c(nn1-c1ccc(S(=O)(=O)NC(=S)NC(=O)c3ccccc3)cc1)-c1ccccc1CC2`, the GI50 in [1] is over 100 µM; in [2] it was over 100000 nM; in [3], 72.4 µM; in test [4], 29 µM; in [5] it was over 100 µM; in [6] it was 39.5 µM. Moreover, the GI50 in [7] was 96.4 µM; in [8] it was 28.9 µM; in test [9] it was 6.09 µM; in test [10] it was 60.2 µM. Besides, the TGI in test [1], in test [2], in [3], in test [4], in test [5] and in test [6] was over 100 µM in each case. Also, the TGI in test [7] is over 100 µM; in [8], 78.5 µM; in [9] it was over 100 µM; in test [10] it was over 100 µM.
With `O=C1c2cc(F)ccc2-c2c1c1ccc([N+](=O)[O-])cc1c(=O)n2CCCBr`, the GI50 in test [1] is over 100 µM; in test [2] it was 15600 nM; in test [3] it was 12.2 µM; in [4], 22.8 µM; in test [5], over 100 µM; in [6] it was 56.8 µM. In addition, the GI50 in test [7] was 8.13 µM; in [8] it was 64.8 µM; in test [9] it was 22.4 µM; in [10], 22.6 µM. The TGI is over 100 µM in [1]; over 100 µM in test [2]; over 100 µM in test [3]; 77.7 µM in test [4]; over 100 µM in [5]; over 100 µM in test [6]. In addition, the TGI in test [7], in test [8], in test [9] and in test [10] was over 100 µM in each case.
For `CCOC(=O)CN(c1ccccc1)c1nc(=[N+](C)C)ss1`, the TGI in test [1] came to 32.7 µM; in test [2] it was 36.5 µM; in test [3], 70.1 µM; in test [4] it was 59.3 µM; in [5], 55.9 µM; in test [6], 56.5 µM. Moreover, the TGI in [7] is over 100 µM; in test [8] it was over 100 µM; in test [9] it was over 100 µM; in [10], 75.4 µM.
